US20060030616A1, “Anhydride modified cantharidin analogues useful in the treatment of cancer” (priority 1998, published 2006)

Experiments:
HCT116 cells = assay: Checkpoint abrogation after 6 Gy radiation, flow cytometry; assay type: cell-based, human; settings: 12 h after drug
Experimental: (§1) The cells are fixed in 70% ethanol and stored at −20° C. until analysis is performed (1-2 weeks). After fixing, the cells are pelleted and incubated in PBS containing propidium iodide ([…]) and RNase A (200 mg/ml) for at least 30 min at room temperature. The samples (2×10^4 events) are analysed using a Becton Dickson FACScan, fluorescence is collected in fluorescence detector 2 (FL2), filter 575/30 nm band pass. Cell cycle distribution is assessed using Cell Quest software (Becton Dickson).
(§2) The ability of the protein phosphatase inhibitors to abrogate the G1 or G2 checkpoint of the cell cycle may be determined by cell cycle analysis using flow cytometry. Briefly, asynchronous cell cultures are harvested 18 h after 6 Gy irradiation and/or 12 h incubation with the protein phosphatase inhibitor. Depending upon the p53 status of the cell line, radiation treatment alone will induce arrest in either G1 and/or G2 phase of the cell cycle.
(§3) If the protein phosphatase inhibitor abrogates the G2 checkpoint then the cells will not arrest in the G2 phase of the cell cycle and the cells will continue through the cell cycle and accumulate in the G1 phase of the cell cycle only. Similarily if the protein phosphatase inhibitors abrogates the G1 checkpoint then the cells will not arrest in the G1 phase of the cell cycle and accumulate in the G2 phase of the cell cycle only. Cell cycle analysis using propidium iodide labelling of DNA has been used extensively in our laboratory to assess the effect of specific anticancer agents that induce S-phase cell cycle arrest and apoptotic cell death (Sakoff, Ackland and Stewart, 1998). Experiments were performed on a Becton Dickinson FACScan and using Cell Quest software.
(§4) The cells were treated with 6 Gy of radiation and then treated with cantharidin 6 h later. The ability to abrogate cell cycle arrest was assessed is 12 h after the addition of the drugs.

L1210 cells [1] = assay: as above; assay type: cell-based, murine; settings: 12 h after drug
Experimental: as §1, §2, §3, §4

HL60 cells = assay: Cell cycle analysis, flow cytometry of propidium iodide stained cells; assay type: cell-based, human; settings: for Cell Cycle Distribution, G1 / Cell Cycle Distribution, G2 + M / Cell Cycle Distribution, S / Cell Cycle Distribution, sub G1 / Cell cycle remark: 12 h
L1210 cells [2] = assay: MTT cytotoxicity assay, 72 h; assay type: cell-based, murine; settings: L1210, p53 wt; read-out: IC50 (mean ± SE) after 72 h continuous exposure
Experimental: Cells in a subconfluent phase are transferred to 96-well microtitre plates. L1210 cells are plated at a density of 1000 cells/well in 100 μl medium, while all other cell lines are plated at a density of 2000-25000 cells/well. The cells are left for 24 h prior to treatment to ensure exponential growth has been achieved, 24 h after plating (day 0), 100 μl of phosphatase inhibitor is added to each well, control wells received 100 μl of medium only. Drug exposure time is 72 h (day 3). The effect of phosphatase inhibition is tested in triplicate over a concentration range of […]−1×10^−8 M. Growth inhibitory effects are evaluated using the MTT assay and absorbance read at […]. The IC50 is the drug concentration at which cell growth is 50% inhibited based on the difference of optical density on day 0 and day 3 of drug exposure. Cytotoxicity is evaluated using a spectrophotometric assay which determines the percentage of cell growth following exposure of the cells to various concentrations of the phosphatase inhibitors for a period of 72 hours. The subsequent dose response curve is used to calculate IC50 values (the drug concentration at which cell growth is 50% inhibited).
Anti-cancer screening of the protein phosphatase inhibitors is assessed using the MTT assay. This assay determines cell viability by the ability of mitochondrial dehydrogenase to produce formazan crystals from 3-(4,5-dimethylthiazol-2-yl)-2,5-diphenyltetrazolium bromide. The viable cell number/well is directly proportional to the production of formazan, which following solubilization, can be measured spectrophotometrically (540 nm). This technique is also used by the National Cancer Institute to screen for new anticancer agents.
As described herein a number of cantharidin analogues have been synthesised and tested for their anticancer activity in nine cancer cell lines using the MTT assay after 72 h exposure. These new analogues are shown in FIG. 2 and have been designated MK-1 through to MK-9.

O=C1OC(=O)C2C3C=CC(O3)C12 (stereo not drawn) [MK-2]
Cell Cycle Distribution, G1 (HCT116 cells; HCT116, 5 μM, 18 h after 6Gy): 30.8 percentage of total | Cell Cycle Distribution, G2 + M (HCT116 cells; HCT116, 5 μM, 18 h after 6Gy): 57.2 percentage of total | Cell Cycle Distribution, S (HCT116 cells; HCT116, 5 μM, 18 h after 6Gy): 7.9 percentage of total | Cell Cycle Distribution, sub G (HCT116 cells; HCT116, 5 μM, 18 h after 6Gy): 3.7 percentage of total | Cell Cycle Distribution, G1 (HCT116 cells; HCT116, 50 μM, 18 h after 6Gy): 32.8 percentage of total | Cell Cycle Distribution, G2 + M (HCT116 cells; HCT116, 50 μM, 18 h after 6Gy): 57.3 percentage of total | Cell Cycle Distribution, S (HCT116 cells; HCT116, 50 μM, 18 h after 6Gy): 6.3 percentage of total | Cell Cycle Distribution, sub G (HCT116 cells; HCT116, 50 μM, 18 h after 6Gy): 3.3 percentage of total | Cell Cycle Distribution, G1 (HCT116 cells; HCT116, 100 μM, 18 h after 6Gy): 29.9 percentage of total | Cell Cycle Distribution, G2 + M (HCT116 cells; HCT116, 100 μM, 18 h after 6Gy): 59.6 percentage of total | Cell Cycle Distribution, S (HCT116 cells; HCT116, 100 μM, 18 h after 6Gy): 7.2 percentage of total | Cell Cycle Distribution, sub G (HCT116 cells; HCT116, 100 μM, 18 h after 6Gy): 3.1 percentage of total | Cell Cycle Distribution, G1 (HCT116 cells; HCT116, 250 μM, 18 h after 6Gy): 23.9 percentage of total | Cell Cycle Distribution, G2 + M (HCT116 cells; HCT116, 250 μM, 18 h after 6Gy): 65.4 percentage of total | Cell Cycle Distribution, S (HCT116 cells; HCT116, 250 μM, 18 h after 6Gy): 4.3 percentage of total | Cell Cycle Distribution, sub G (HCT116 cells; HCT116, 250 μM, 18 h after 6Gy): 6.2 percentage of total | Cell Cycle Distribution, G1 (HCT116 cells; HCT116, 500 μM, 18 h after 6Gy): 15.4 percentage of total | Cell Cycle Distribution, G2 + M (HCT116 cells; HCT116, 500 μM, 18 h after 6Gy): 73.0 percentage of total | Cell Cycle Distribution, S (HCT116 cells; HCT116, 500 μM, 18 h after 6Gy): 4.9 percentage of total | Cell Cycle Distribution, sub G (HCT116 cells; HCT116, 500 μM, 18 h after 6Gy): 6.4 percentage of total | Checkpoint remark (HCT116 cells; HCT116, 500 μM, 18 h after 6Gy): G1 abrogation | Checkpoint abrogation (HCT116 cells; HCT116, 6 Gy): abrogated radiation induced G1 arrest | Cell Cycle Distribution, G1 (L1210 cells [1]; L1210, 50 μM, 18 h after 6Gy): 19.0 percentage of total | Cell Cycle Distribution, G2 + M (L1210 cells [1]; L1210, 50 μM, 18 h after 6Gy): 50.1 percentage of total | Cell Cycle Distribution, S (L1210 cells [1]; L1210, 50 μM, 18 h after 6Gy): 27.8 percentage of total | Cell Cycle Distribution, sub G1 (L1210 cells [1]; L1210, 50 μM, 18 h after 6Gy): 4.0 percentage of total | Cell Cycle Distribution, G1 (L1210 cells [1]; L1210, 100 μM, 18 h after 6Gy): 18.4 percentage of total | Cell Cycle Distribution, G2 + M (L1210 cells [1]; L1210, 100 μM, 18 h after 6Gy): 55.8 percentage of total | Cell Cycle Distribution, S (L1210 cells [1]; L1210, 100 μM, 18 h after 6Gy): 23.0 percentage of total | Cell Cycle Distribution, sub G1 (L1210 cells [1]; L1210, 100 μM, 18 h after 6Gy): 3.5 percentage of total | Cell Cycle Distribution, G1 (L1210 cells [1]; L1210, 250 μM, 18 h after 6Gy): 11.2 percentage of total | Cell Cycle Distribution, G2 + M (L1210 cells [1]; L1210, 250 μM, 18 h after 6Gy): 71.9 percentage of total | Cell Cycle Distribution, S (L1210 cells [1]; L1210, 250 μM, 18 h after 6Gy): 10.0 percentage of total | Cell Cycle Distribution, sub G1 (L1210 cells [1]; L1210, 250 μM, 18 h after 6Gy): 6.9 percentage of total | Cell Cycle Distribution, G1 (L1210 cells [1]; L1210, 500 μM, 18 h after 6Gy): 3.4 percentage of total | Cell Cycle Distribution, G2 + M (L1210 cells [1]; L1210, 500 μM, 18 h after 6Gy): 88.4 percentage of total | Cell Cycle Distribution, S (L1210 cells [1]; L1210, 500 μM, 18 h after 6Gy): 2.9 percentage of total | Cell Cycle Distribution, sub G1 (L1210 cells [1]; L1210, 500 μM, 18 h after 6Gy): 5.4 percentage of total | Checkpoint remark (L1210 cells [1]; L1210, 500 μM, 18 h after 6Gy): G1 abrogation | Checkpoint abrogation (L1210 cells [1]; L1210, 6 Gy): abrogated radiation induced G1 arrest | Cell Cycle Distribution, G1 (HL60 cells; HL60, 50 μM): 44.1 percentage of total | Cell Cycle Distribution, G2 + M (HL60 cells; HL60, 50 μM): 31.4 percentage of total | Cell Cycle Distribution, S (HL60 cells; HL60, 50 μM): 23.8 percentage of total | Cell Cycle Distribution, sub G1 (HL60 cells; HL60, 50 μM): 1.8 percentage of total | Cell Cycle Distribution, G1 (HL60 cells; HL60, 100 μM): 43.3 percentage of total | Cell Cycle Distribution, G2 + M (HL60 cells; HL60, 100 μM): 32.4 percentage of total | Cell Cycle Distribution, S (HL60 cells; HL60, 100 μM): 23.6 percentage of total | Cell Cycle Distribution, sub G1 (HL60 cells; HL60, 100 μM): 1.8 percentage of total | Cell Cycle Distribution, G1 (HL60 cells; HL60, 250 μM): 37.7 percentage of total | Cell Cycle Distribution, G2 + M (HL60 cells; HL60, 250 μM): 36.4 percentage of total | Cell Cycle Distribution, S (HL60 cells; HL60, 250 μM): 23.8 percentage of total | Cell Cycle Distribution, sub G1 (HL60 cells; HL60, 250 μM): 3.2 percentage of total | Cell cycle remark (HL60 cells; HL60, 250 μM): G2 arrest | Cell Cycle Distribution, G1 (HL60 cells; HL60, 500 μM): 17.8 percentage of total | Cell Cycle Distribution, G2 + M (HL60 cells; HL60, 500 μM): 43.1 percentage of total | Cell Cycle Distribution, S (HL60 cells; HL60, 500 μM): 21.6 percentage of total | Cell Cycle Distribution, sub G1 (HL60 cells; HL60, 500 μM): 18.8 percentage of total | Cell cycle remark (HL60 cells; HL60, 500 μM): Cell death | Cell cycle response (HL60 cells; HL60, 12 h exposure): G2 arrest | IC50 (L1210 cells [2]): 185 ± 51 µM
